Results from PubChem BioAssay (NCI).
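Cultured in 96-well plates, cells were exposed to test compound for 48 hours across five concentrations. Abbreviation: GI50, concentration required for 50% inhibition of growth. Definition used: TGI = concentration required for complete inhibition of growth.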

Columns and labels:
Experiment in all cases: DTP human tumour cell line panel, 48 h
HOP-92 NSCLC = system: HOP-92 NSCLC
UACC-62 melanoma = system: UACC-62 melanoma
NCI-H522 lung = system: NCI-H522 lung
HCC-2998 colon = system: HCC-2998 colon
RPMI-8226 leukemia = system: RPMI-8226 leukemia
786-0 renal = system: 786-0 renal
SF-539 CNS = system: SF-539 CNS
SN12C renal = system: SN12C renal
NCI-H226 lung = system: NCI-H226 lung
A498 renal = system: A498 renal
CAKI-1 renal = system: CAKI-1 renal
BT-549 breast = system: BT-549 breast
MALME-3M melanoma = system: MALME-3M melanoma
NCI-H23 lung = system: NCI-H23 lung
SF-295 CNS = system: SF-295 CNS
IGROV1 ovarian = system: IGROV1 ovarian
COLO 205 colon = system: COLO 205 colon
HL-60(TB) leukemia = system: HL-60(TB) leukemia
OVCAR-3 ovarian = system: OVCAR-3 ovarian
NCI/ADR-RES ovarian = system: NCI/ADR-RES ovarian
DU-145 prostate = system: DU-145 prostate
HS 578T breast = system: HS 578T breast
SK-MEL-2 melanoma = system: SK-MEL-2 melanoma
RXF 393 renal = system: RXF 393 renal
HCT-116 colon = system: HCT-116 colon
SK-MEL-5 melanoma = system: SK-MEL-5 melanoma
OVCAR-4 ovarian = system: OVCAR-4 ovarian
KM12 colon = system: KM12 colon
TK-10 renal = system: TK-10 renal
OVCAR-8 ovarian = system: OVCAR-8 ovarian
M14 melanoma = system: M14 melanoma
SNB-75 CNS = system: SNB-75 CNS
CCRF-CEM leukemia = system: CCRF-CEM leukemia
T-47D breast = system: T-47D breast
UACC-257 melanoma = system: UACC-257 melanoma
MDA-MB-435 = system: MDA-MB-435
PC-3 prostate = system: PC-3 prostate
SW-620 colon = system: SW-620 colon
HT29 colon = system: HT29 colon
MCF7 breast = system: MCF7 breast
NCI-H460 lung = system: NCI-H460 lung
MDA-MB-231 breast = system: MDA-MB-231 breast
MOLT-4 leukemia = system: MOLT-4 leukemia
HOP-62 NSCLC = system: HOP-62 NSCLC
A549 NSCLC = system: A549 NSCLC
EKVX NSCLC = system: EKVX NSCLC
SK-OV-3 ovarian = system: SK-OV-3 ovarian
K-562 leukemia = system: K-562 leukemia
UO-31 renal = system: UO-31 renal
SF-268 CNS = system: SF-268 CNS
OVCAR-5 ovarian = system: OVCAR-5 ovarian
SK-MEL-28 melanoma = system: SK-MEL-28 melanoma
U251 CNS = system: U251 CNS

CSc1ccc2c3c(n(C[C@H](O)CO)c(=O)c2c1)-c1ccccc1C3=O
GI50 (HOP-92 NSCLC): 12.9 µM | TGI (HOP-92 NSCLC): 93.9 µM | GI50 (UACC-62 melanoma): 1.39 µM | TGI (UACC-62 melanoma): 4.64 µM | GI50 (NCI-H522 lung): 2 µM | TGI (NCI-H522 lung): 25.5 µM | GI50 (HCC-2998 colon): 3.32 µM | TGI (HCC-2998 colon): 18 µM | GI50 (RPMI-8226 leukemia): 1.62 µM | TGI (RPMI-8226 leukemia): 4.86 µM | GI50 (786-0 renal): 2.52 µM | TGI (786-0 renal): 9.22 µM | GI50 (SF-539 CNS): 2.36 µM | TGI (SF-539 CNS): 7.37 µM | GI50 (SN12C renal): 1.94 µM | TGI (SN12C renal): 13.6 µM | GI50 (NCI-H226 lung): 1.86 µM | TGI (NCI-H226 lung): 5.31 µM | GI50 (A498 renal): 2.57 µM | TGI (A498 renal): 12.6 µM | GI50 (CAKI-1 renal): 1.11 µM | TGI (CAKI-1 renal): 5.74 µM | GI50 (BT-549 breast): 2.77 µM | TGI (BT-549 breast): 22.8 µM | GI50 (MALME-3M melanoma): 4.3 µM | TGI (MALME-3M melanoma): 22 µM | GI50 (NCI-H23 lung): 2.95 µM | TGI (NCI-H23 lung): 12.7 µM | GI50 (SF-295 CNS): 2.82 µM | TGI (SF-295 CNS): 12 µM | GI50 (IGROV1 ovarian): 3.77 µM | TGI (IGROV1 ovarian): 85.3 µM | GI50 (COLO 205 colon): 2.94 µM | TGI (COLO 205 colon): 21.1 µM | GI50 (HL-60(TB) leukemia): 1.81 µM | TGI (HL-60(TB) leukemia): 11.7 µM | GI50 (OVCAR-3 ovarian): 4.33 µM | TGI (OVCAR-3 ovarian): 41.9 µM | GI50 (NCI/ADR-RES ovarian): 4.44 µM | TGI (NCI/ADR-RES ovarian): 49.9 µM | GI50 (DU-145 prostate): 2.5 µM | TGI (DU-145 prostate): > 100 µM | GI50 (HS 578T breast): 15.8 µM | TGI (HS 578T breast): 78.8 µM | GI50 (SK-MEL-2 melanoma): 16.6 µM | TGI (SK-MEL-2 melanoma): 60.8 µM | GI50 (RXF 393 renal): 3.5 µM | TGI (RXF 393 renal): 23.3 µM | GI50 (HCT-116 colon): 0.742 µM | TGI (HCT-116 colon): 2.35 µM | GI50 (SK-MEL-5 melanoma): 1.75 µM | TGI (SK-MEL-5 melanoma): 3.76 µM | GI50 (OVCAR-4 ovarian): 6.38 µM | TGI (OVCAR-4 ovarian): > 100 µM | GI50 (KM12 colon): 2.26 µM | TGI (KM12 colon): 10.3 µM | GI50 (TK-10 renal): 4.76 µM | TGI (TK-10 renal): 37.5 µM | GI50 (OVCAR-8 ovarian): 2.21 µM | TGI (OVCAR-8 ovarian): 20.9 µM | GI50 (M14 melanoma): 4.09 µM | TGI (M14 melanoma): 58.3 µM | GI50 (SNB-75 CNS): 12.5 µM | TGI (SNB-75 CNS): > 100 µM | GI50 (CCRF-CEM leukemia): 1.02 µM | TGI (CCRF-CEM leukemia): 7.1 µM | GI50 (T-47D breast): 2.85 µM | TGI (T-47D breast): 45.8 µM | GI50 (UACC-257 melanoma): 13.2 µM | TGI (UACC-257 melanoma): 42.6 µM | GI50 (MDA-MB-435): 9.95 µM | TGI (MDA-MB-435): > 100 µM | GI50 (PC-3 prostate): 3.42 µM | TGI (PC-3 prostate): > 100 µM | GI50 (SW-620 colon): 0.978 µM | TGI (SW-620 colon): 43.6 µM | GI50 (HT29 colon): 1.33 µM | TGI (HT29 colon): 6.38 µM | GI50 (MCF7 breast): 0.423 µM | TGI (MCF7 breast): 11 µM | GI50 (NCI-H460 lung): 0.476 µM | TGI (NCI-H460 lung): 2.33 µM | GI50 (MDA-MB-231 breast): 3.13 µM | TGI (MDA-MB-231 breast): 15.1 µM | GI50 (MOLT-4 leukemia): 0.368 µM | TGI (MOLT-4 leukemia): 2.33 µM | GI50 (HOP-62 NSCLC): 1.83 µM | TGI (HOP-62 NSCLC): 7.27 µM | GI50 (A549 NSCLC): 1.04 µM | TGI (A549 NSCLC): 3.47 µM | GI50 (EKVX NSCLC): 3.89 µM | TGI (EKVX NSCLC): 88 µM | GI50 (SK-OV-3 ovarian): 6.06 µM | TGI (SK-OV-3 ovarian): 34.2 µM | GI50 (K-562 leukemia): 1.72 µM | TGI (K-562 leukemia): > 100 µM | GI50 (UO-31 renal): 1.53 µM | TGI (UO-31 renal): 8.94 µM | GI50 (SF-268 CNS): 4.64 µM | TGI (SF-268 CNS): > 100 µM | GI50 (OVCAR-5 ovarian): 3.1 µM | TGI (OVCAR-5 ovarian): 10.6 µM | GI50 (SK-MEL-28 melanoma): 4.46 µM | TGI (SK-MEL-28 melanoma): 48.8 µM | GI50 (U251 CNS): 1.19 µM | TGI (U251 CNS): 7.49 µM
